The test system of one test is Pantetheinase (vanin). Nature of the test: Human Whole Blood assay. In kind it is cell-based. To be noted: formation of pantothenic acid after pantethine supplementation, RapidFire MS, read-out: HWB IC50. The method, then:
Human Whole Blood assay: Pantetheinase (vanin) converts panteheine into pantothenic acid and cysteamine. Accordingly, in the described protocol vanin activity is quantified by formation of pantothenic acid after pantetheine supplementation via pantethine. The assay is applicable to identify vanin inhibitors. Compound stocks were dissolved in DMSO at 10 mM. Further dilutions were performed in RPMI 1640 medium (Gibco, #A-10491-01) and final concentrations in the assay were 0.032 nM-500 nM.
Human blood was drawn into a blood bag (1% heparin, 50 I.E./mL). Blood was aliquoted into cavities of 96-deep-well plates at 290 μL and mixed with 10 μL compound solution or vehicle (30 sec at 1400 rpm on a shaker). Equilibration followed at room temperature, 250 rpm and for 30 min. The assay was started by adding 10 μL of substrate solution (20 μM pantethine in 1 mM DTT, 0.0025% Brij-35, 50 mM HEPES, pH7.5) to each well, except for some blank wells which received […] substrate buffer (1 mM DTT, 0.0025% Brij-35, 50 mM HEPES, pH7.5) only. Samples were thoroughly shaken (30 sec, 1400 rpm) and reaction was allowed to take place at room temperature, 250 rpm and for 5 min. The reaction was stopped by addition of a vanin tool inhibitor in excess (BI-1 total conc. 10 μM). Centrifugation of the plate followed at 4° C., 665 G for 10 min. Then the blood plasma samples (100 μL) were transferred into another 96-deep-well plate and proteins were precipitated (5 min on ice) by adding 100 μL of ice cold precipitation solution (1 μM labelled pantothenic acid (di-β-alanine-13C6,15N2 calcium salt, Sigma, #705837) in acetonitrile). Afterwards the plate was centrifuged (4° C., 3220 G, 10 min) and supernatants (50 μL) were collected into another 96-deep-well plate and mixed (10 sec, 1400 rpm) with 150 μL ice cold formic acid (0.1%, Carl Roth GmbH+Co.KG, #CP03.1). The formation of pantothenic acid is detected by RapidFire Mass Spectrometry. A TripleQuad 6500+ (ABSciex, Germany) was equipped with an LC-1290 system, a RapidFire autosampler (Agilent, Germany) and a C18 cartridge Type C 12 μL (Agilent Cat #G9526-80000). Mobile phase A was consisting of 0.09% formic acid and 0.01% trifluoroacetic acid in water and mobile phase B of 0.09% formic acid and 0.01% trifluoroacetic acid in acetonitrile/methanol/water=47.5/47.5/5.

Test [1] concerns the target FLAG-tagged Vanin-1 (AA 22-493, T26I) (Homo sapiens (Human), UniProt O95497, T26I). Nature of the test: Vanin-1 enzymatic assay. In kind it is biochemical. To be noted: formation of pantothenic acid from D-pantethine (3 μM), RapidFire MS; geometric mean in case of multiple measurements; read-out: VNN 1 IC50. The method, then: The test compounds are dissolved in 100% DMSO at a concentration of 10 mM and in a first step diluted in DMSO to a concentration of 5 mM, followed by serial dilution steps in 100% DMSO. Dilution factor and number of dilution steps may vary according to needs. Typically 8 different concentrations by 1:5 dilutions are prepared, a further intermediate dilutions of the substances is carried out with assay buffer resulting in 1% final DMSO concentration in the assay.
0.1 nM of FLAG-tagged Vanin-1 (AA 22-493, T26I, produced internally) and test compounds are incubated at room temperature for 20 minutes in assay buffer (1 mM DTT, 0.0025% Brij-35, 50 mM HEPES, pH7.5). D-Pantethine (Sigma, Cat #P2125-5G) in assay buffer is added (final concentration 3 μM) and incubated for additional 30 minutes at room temperature. Total assay volume typically is 40 μl but might be adjusted according to needs. Reaction is stopped by adding equal volume of stop solution as the reaction mixture to reach 100 nM HD-pantothenic acid (as an internal standard) and 1% TFA. Assay plates are centrifuged for 2 minutes and the formation of pantothenic acid is detected by RapidFire Mass Spectrometry (mobile phase A: 0.1% formic acid and 0.01% trifluoroacetic acid in water; mobile phase B: 47.5% acetonitrile, 47.5% methanol, 0.1% formic acid and 0.01% trifluoroacetic acid in water) using a C18, 12 μL cartridge (Agilent Cat #G9205A).
The values given in Table I result from measurements of one or more samples. In case of multiple measurements the geometric mean values are given.

FLAG-tagged Vanin-1 (AA 22-493, T26I), sequence (O95497 22-493 T26I): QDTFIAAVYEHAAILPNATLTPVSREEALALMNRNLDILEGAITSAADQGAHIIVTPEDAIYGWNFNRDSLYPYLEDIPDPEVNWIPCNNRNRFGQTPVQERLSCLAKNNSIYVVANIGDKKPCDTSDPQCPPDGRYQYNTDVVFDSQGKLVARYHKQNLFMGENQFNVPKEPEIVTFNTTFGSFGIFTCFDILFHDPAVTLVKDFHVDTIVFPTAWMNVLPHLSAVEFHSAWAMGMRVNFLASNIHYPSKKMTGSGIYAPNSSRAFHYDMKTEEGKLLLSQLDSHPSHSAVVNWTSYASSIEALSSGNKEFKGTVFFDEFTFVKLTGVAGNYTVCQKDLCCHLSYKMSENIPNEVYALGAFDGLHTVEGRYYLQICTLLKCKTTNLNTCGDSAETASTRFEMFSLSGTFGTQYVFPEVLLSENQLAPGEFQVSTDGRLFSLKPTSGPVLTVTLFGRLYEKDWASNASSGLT

In general, IC50 refers to the concentration that gives 50% inhibition. With `CC(=O)N(C)[C@H]1CCN(C(=O)c2cnc3c(c2)CC(C)(c2ccc(Cl)cc2)N3)C1` (mixture of isomers) [Example 8.1, N-[(3S)-1-[2-(4-Chlorophenyl)-2-methyl-1H,2H,3H-pyrrolo[2,3-b]pyridine-5-carbonyl]pyrrolidin-3-yl]-N-methylacetamide], the IC50 in the test on Pantetheinase (vanin) was 4.3 nM; in test [1], 0.2 nM.

For the compound `CC(=O)N(C)[C@H]1CCN(C(=O)c2cnc3c(c2)CC(C)(C)N3)C1` [Example 1.1, N-[(3S)-1-{2,2-Dimethyl-1H,2H,3H-pyrrolo[2,3-b]pyridine-5-carbonyl}pyrrolidin-3-yl]-N-methylacetamide], in test [1], the IC50 was found to be 2.5 nM.

`CC1(C)Cc2cc(C(=O)N3CC[C@H](N4CCCC4=O)C3)cnc2N1` [Example 1.2]: the IC50 with Pantetheinase (vanin) came to 11.5 nM; in test [1], 1.5 nM.

Regarding `CC1(C)Cc2cc(C(=O)N3CC[C@H](N4CCOC4=O)C3)cnc2N1` [Example 1.3], the concentration for half-maximal inhibition (IC50) in test [1] amounted to 1.6 nM.

`CC1(C)Cc2cc(C(=O)N3CCC4(CCOCC4)C3)cnc2N1` [Example 1.4]: in test [1], the IC50 is 4.9 nM.

Turning to `CC1(C)Cc2cc(C(=O)N3CC4(CCOCC4)C3)cnc2N1` [Example 1.5], in test [1], the IC50 was 10.4 nM.

Regarding `CN(C(=O)C1CCC1)[C@H]1CCN(C(=O)c2cnc3c(c2)CC(C)(C)N3)C1` [Example 2.1, N-[(3S)-1-{2,2-Dimethyl-1H,2H,3H-pyrrolo[2,3-b]pyridine-5-carbonyl}pyrrolidin-3-yl]-N-methylcyclobutanecarboxamide], the results for the IC50 (in the test on Pantetheinase (vanin); in test [1]) were 2.5 nM and 0.9 nM, respectively.

With `CN(C(=O)C1(C#N)CC1)[C@H]1CCN(C(=O)c2cnc3c(c2)CC(C)(C)N3)C1` [Example 2.2], the 50% inhibitory concentration (IC50) is 9.5 nM in the test on Pantetheinase (vanin) and 1.1 nM in test [1].

Take `CN(C(=O)C1(C)CCC1)[C@H]1CCN(C(=O)c2cnc3c(c2)CC(C)(C)N3)C1` [Example 2.3]: the IC50 in test [1] was determined as 4.6 nM.

Regarding `CN(C(=O)C1CC(F)(F)C1)[C@H]1CCN(C(=O)c2cnc3c(c2)CC(C)(C)N3)C1` [Example 2.4], the IC50 in the test with Pantetheinase (vanin) is 2.8 nM; in test [1], 0.6 nM.

Take `CN(C(=O)C1CC1)[C@H]1CCN(C(=O)c2cnc3c(c2)CC(C)(C)N3)C1` [Example 2.5]: the IC50 in test [1] came out at 2.1 nM.

Turning to `CN(c1ncccn1)[C@H]1CCN(C(=O)c2cnc3c(c2)CC(C)(C)N3)C1` [Example 3.1, N-[(3S)-1-{2,2-Dimethyl-1H,2H,3H-pyrrolo[2,3-b]pyridine-5-carbonyl}pyrrolidin-3-yl]-N-methylpyrimidin-2-amine], the results for the IC50 (with Pantetheinase (vanin); in test [1]) were 38 nM and 2.3 nM, respectively.

Regarding `C[C@]1(c2cccc(F)c2)Cc2cc(C(=O)N3CC[C@H](N4CCOC4=O)C3)cnc2N1` [Example 4.1, 3-[(3S)-1-[(2R)-2-(3-Fluorophenyl)-2-methyl-1H,2H,3H-pyrrolo[2,3-b]pyridine-5-carbonyl]pyrrolidin-3-yl]-1,3-oxazolidin-2-one], the IC50 with Pantetheinase (vanin) is 1.4 nM; in test [1], 0.1 nM.

For `CC(=O)N(C)[C@H]1CCN(C(=O)c2cnc3c(c2)C[C@@](C)(c2cccc(F)c2)N3)C1` [Example 4.2], in test [1], the 50% inhibitory concentration (IC50) was determined as 1.7 nM.

Consider `CC(=O)N(C)[C@H]1CCN(C(=O)c2cnc3c(c2)C[C@](C)(c2cccc(F)c2)N3)C1` [Example 4.3], for which the results for the IC50 (in the test with Pantetheinase (vanin); in test [1]) were 1.4 nM and 0.1 nM, respectively.

As for `CC(=O)N(C)[C@H]1CCN(C(=O)c2cnc3c(c2)C[C@@](C)(c2ccc(F)cc2)N3)C1` [Example 5.4], the IC50 in test [1] was determined as 87.1 nM.

On to `C[C@]1(c2cccc(Cl)c2)Cc2cc(C(=O)N3CC[C@H](N4CCCC4=O)C3)cnc2N1` [Example 7.1, (3′S)-1′-[2-(3-Chlorophenyl)-2-methyl-1H,2H,3H-pyrrolo[2,3-b]pyridine-5-carbonyl]-[1,3′-bipyrrolidine]-2-one], for which the half-inhibitory concentration (IC50) in test [1] was found to be 0.1 nM.

Consider `CC(=O)N(C)[C@H]1CCN(C(=O)c2cnc3c(c2)C[C@@](C)(c2ccc(Cl)cc2)N3)C1` [Example 9.2, N-[(3S)-1-[(2S)-2-(4-Chlorophenyl)-2-methyl-1H,2H,3H-pyrrolo[2,3-b]pyridine-5-carbonyl]pyrrolidin-3-yl]-N-methylacetamide], for which the IC50 in test [1] is 1.4 nM.

Regarding `CC(=O)N(C)[C@H]1CCN(C(=O)c2cnc3c(c2)C[C@@](C)(c2ccccc2)N3)C1` [Example 9.4], the IC50 in test [1] was 25.9 nM.

With `CC(=O)N(C)[C@H]1CCN(C(=O)c2cnc3c(c2)C[C@](C)(c2ccc(C#N)cc2)N3)C1` [Example 10, N-[(3S)-1-[(2R)-2-(4-Cyanophenyl)-2-methyl-1H,2H,3H-pyrrolo[2,3-b]pyridine-5-carbonyl]pyrrolidin-3-yl]-N-methylacetamide], the IC50 in test [1] came out at 0.2 nM.

As to `CC1(C)CCc2cc(C(=O)N3CCC4(CCOCC4)C3)cnc2N1` [Example 11.1, 2-(7,7-Dimethyl-5,6,7,8-tetrahydro-1,8-naphthyridine-3-carbonyl)-8-oxa-2-azaspiro[4.5]decane], the IC50 in test [1] was determined as 1.7 nM.

With `CC1(C)CCc2cc(C(=O)N3CC[C@H](N4CCOC4=O)C3)cnc2N1` [Example 11.5], in test [1], the IC50 came to 4.3 nM.

Take `CN(C(=O)C1(C#N)CC1)[C@H]1CCN(C(=O)c2cnc3c(c2)CCC(C)(C)N3)C1` [Example 11.7]: the IC50 in test [1] was determined as 4.9 nM.

Regarding `CC(=O)N(C)[C@H]1CCN(C(=O)c2cnc3c(c2)CCC(c2ccccc2)N3)C1` (stereo partly drawn) [Example 12.1, N-Methyl-N-[(3S)-1-(7-phenyl-5,6,7,8-tetrahydro-1,8-naphthyridine-3-carbonyl)pyrrolidin-3-yl]acetamide], in test [1], the IC50 amounted to 20.3 nM.

Consider `CC(=O)N(C)[C@H]1CCN(C(=O)c2cnc3c(c2)CCCCN3)C1` [Example 12.3], for which the IC50 in test [1] was found to be 0.4 nM.

For the compound `CC(=O)N(C)[C@H]1CCN(C(=O)c2cnc3c(c2)CCCC(C)(C)N3)C1` [Example 12.4], the IC50 in test [1] is 2.5 nM.

Consider `CC1(C)CCCc2cc(C(=O)N3CC[C@H](N4CCCC4=O)C3)cnc2N1` [Example 12.5], for which the IC50 in test [1] was 1.5 nM.

For the compound `CN(C(=O)C1CC1)[C@H]1CCN(C(=O)c2cnc3c(c2)CCCC(C)(C)N3)C1` [Example 12.6], the IC50 in test [1] is 2.7 nM.

For the compound `CC1(C)CCCc2cc(C(=O)N3CC[C@H](N4CCOC4=O)C3)cnc2N1` [Example 12.7], in test [1], the IC50 worked out at 1.4 nM.

Take `CN(C(=O)C1CCC1)[C@H]1CCN(C(=O)c2cnc3c(c2)CC[C@](C)(c2cncnc2)N3)C1` [Example 13.1, N-methyl-N-[(3S)-1-[(7R)-7-Methyl-7-(pyrimidin-5-yl)-5,6,7,8-tetrahydro-1,8-naphthyridine-3-carbonyl]pyrrolidin-3-yl]cyclobutanecarboxamide]: the IC50 in test [1] turned out to be 0.2 nM.

With `CN(C(=O)C1CCC1)[C@H]1CCN(C(=O)c2cnc3c(c2)CC[C@@](C)(c2cncnc2)N3)C1` [Example 13.2, N-methyl-N-[(3S)-1-[(7S)-7-Methyl-7-(pyrimidin-5-yl)-5,6,7,8-tetrahydro-1,8-naphthyridine-3-carbonyl]pyrrolidin-3-yl]cyclobutanecarboxamide], the half-inhibitory concentration (IC50) in test [1] came out at 23.5 nM.

Consider `CN(C(=O)C1CC1)[C@H]1CCN(C(=O)c2cnc3c(c2)CC[C@](C)(c2cncnc2)N3)C1` [Example 13.3], for which the IC50 in test [1] was 0.3 nM.

In the case of `CN(C(=O)C1CC1)[C@H]1CCN(C(=O)c2cnc3c(c2)CC[C@@](C)(c2cncnc2)N3)C1` [Example 13.4], in test [1], the IC50 is 11.5 nM.

These data come from patent US10864201B2, “Heteroaromatic compounds as Vanin inhibitors” (Boehringer Ingelheim International GmbH, priority 2018, dated 2020).
